Key:
[1] = Gelled deodorant stick blends, silica stabilized vs non-stabilized nanoplates vs silver salt: settling, peak resonance shift, hue; format: physicochemical; conditions: Table A blends
Procedure: Gelled sticks with silver nanoplates were prepared by blending water, dipropylene glycol and propylene glycol components, heating the resulting blends to 85° C., adding the poloxamine to the heated blend and mixing until clear, adding the sodium stearate to the heated blends and again mixing until clear, cooling the blends to 75° C. and adding the 2-amino-2-methylpropan-1-ol with agitation, cooling the blends to 71-73° C., and mixing in the remaining ingredients. Non-stabilized silver nanoplates and silica stabilized silver nanoplates were prepared according to the methods in example 1 and 2 respectively and added into separate blends. A silver salt was added to a separate blend. The blends were then allowed to cool to room temperature and gel.
A 100 microliter aliquot of from non-stabilized and silica stabilized silver blend solutions was added to a 96 well plate and allowed to cool to room temperature and gel.

[2] = Gelled deodorant stick blends, PVP nanoplates with or without borate vs silver salt: settling, peak resonance shift, hue; format: physicochemical; conditions: Table B blends
Procedure: Gelled sticks with silver nanoplates were prepared by blending water, dipropylene glycol and propylene glycol components, heating the resulting blends to 85° C., adding the poloxamine to the heated blend and mixing until clear, adding the sodium stearate to the heated blends and again mixing until clear, cooling the blends to 75° C. and adding the 2-amino-2-methylpropan-1-ol with agitation, cooling the blends to 71-73° C., and then mixing in the remaining ingredients. PVP and borate stabilized silver nanoplates were prepared according to the methods in example 1 with the addition of PVP and borate into the mixture after synthesis. In one blend was added borate prior to adding silver nanoplates, in another blend borate was not added. A silver salt was added to a separate blend with no borate. The blends were then allowed to cool to room temperature and gel.
A 100 microliter aliquot from non-stabilized and silica stabilized silver blend solutions was added to a 96 well plate and allowed to cool to room temperature and gel.

[3] = EPA Reference Dose for Chronic Oral Exposure (RfD) for silver and intravenous conversion; set-up: species or system human population
Source text: We estimate less than half of the silver has diffused from the silicone into the IV fluid over 7 days based on the silver nanoplate plasmonic peak wavelength, which corresponds directly with the diameter decrease in the etched silver nanoplates. Even if all of the silver had diffused from the silicone into the IV fluid during 7 days, this would correspond to a daily body absorption of 1.6 micrograms per day. In the United States, the EPA has set a Reference Dose for Chronic Oral Exposure (RfD) of 5 micgrams per Kg per day for silver. RfD is the daily exposure to the human population (including sensitive subgroups) that is likely to be without an appreciable risk of deleterious effects during a lifetime. Oral dose is estimated based on a conversion of 4% absorption of dietary silver into the body. Thus, an intravenous RfD would be approximately 0.2 micrograms per day of silver. For a 70 Kg person, this corresponds to 14 micrograms per day.

[4] = EPA, United States; cited from earlier work

Row | settling in gelled deodorant blend [1] | settling in gelled deodorant blend [2] | Compound | intravenous RfD for a 70 Kg person ([3]; 70 Kg person) [micrograms per day] | intravenous RfD ([3]; conversion of 4% absorption of dietary silver) | Reference Dose for Chronic Oral Exposure (RfD) [4] [micgrams per Kg per day]
1 | exhibited settling | exhibited settling | [Cl][Ag] [silver chloride, Silver Chloride] | – | – | –
2 | – | – | [Ag] [silver] | 14 | approximately 0.2 micrograms per day | 5
